# In article PMC12676349, “Design of Glycosyltransferase Inhibitors: Targeting the Biosynthesis of Glycosaminoglycans by Phosphonate-Xyloside” (ACS Omega, 2025):
# How the values were obtained:
# [1] = target: T1, β-1,4-Galactosyltransferase 7 (β4GalT7) (Homo sapiens, UniProt Q9UBV7); assay: HPLC assay of GalXylNap formation from XylNap and UDP-Gal; type: biochemical
# T1 construct: gene B4GALT7
# T1 sequence (Q9UBV7 81-327): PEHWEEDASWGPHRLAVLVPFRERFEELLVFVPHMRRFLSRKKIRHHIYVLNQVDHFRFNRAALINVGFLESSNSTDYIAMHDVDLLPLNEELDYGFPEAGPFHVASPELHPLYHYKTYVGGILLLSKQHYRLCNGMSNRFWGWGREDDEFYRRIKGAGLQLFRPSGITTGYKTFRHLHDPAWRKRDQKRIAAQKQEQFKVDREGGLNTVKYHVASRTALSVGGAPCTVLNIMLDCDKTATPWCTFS
# Text: HPLC assay of GalXylNap formation from XylNap and UDP-Gal on β-1,4-Galactosyltransferase 7 (β4GalT7) | display concentration-dependent inhibition of β4GalT7.
# [2] = target: T1, β-1,4-Galactosyltransferase 7 (β4GalT7); assay: STD NMR; type: binding
Structure (SMILES),IC50 [1],STD NMR [2]
"O=P(O)(O)CP(=O)(O)OCCO[C@@H]1COC(O)[C@H](O)[C@H]1O (mixture of isomers) [compound 4, 4-O-(2-(Methylene-diphosphoryl)-hydroxyethyl)-α/β-D-xylopyranose]",188 µM,–
CC(=O)N[C@H]1[C@@H](OP(=O)(O)OP(=O)(O)OC[C@H]2O[C@@H](n3ccc(=O)[nH]c3=O)[C@H](O)[C@@H]2O)O[C@H](CO)[C@H](O)[C@@H]1O [UDP-GalNAc],–,β4GalT7 tolerates an N-acetyl group at C2 of the sugar residue
